“And” between values parts separate entries of the source, which are not always exact repeats. Equal entries are not always repeated.
Experiments:
[1] = test system: CT26 colon carcinoma tumor; test: Example 7: SYN-115 dose range as single agent in the CT26 tumor mouse model (tumor area, survival); format: in vivo, BALB/c mice; set-up: key: tumor area in mm^2 (width × length)
Protocol: The BALB/c mouse colon carcinoma cell line CT26 was cultured in RPMI supplemented with 10% FCS, GlutaMAX, and penicillin/streptomycin. Tumor cells are periodically verified to be Mycoplasma negative by the Victorian Infectious Diseases References Lab (Melbourne, VIC, Australia) by PCR analysis. 1×10^5 cells were resuspended in PBS and injected s.c. into BALB/c mice in a 100 μL volume. At day 7 tumors were measured and mice were randomized into distinct treatment groups to ensure that each group had tumors of similar size at the onset of treatment. Mice were treated with SYN-115 (Batch 71236AA006) at the indicated dose or vehicle control once-daily via oral gavage on days 7 to 20. To calculate a dose of SYN-115 mouse weight was estimated to be 20 g per mouse. Therefore, 100 mg/kg=2 mg per mouse in 200 μL, which is equivalent to 10 mg/ml. To make up 40 mL, 400 milligrams of SYN-115 was weighed and added into a Falcon tube, then 1 mL of Tween 80 was added and mixed into a paste and then 39 mL of 1% Methyl Cellulose was added. The solution was vortexed and then left on a rotating mixer for at least 2 hours and maintained at 4° C. Tumor measurements were taken 2-3 times per week. Tumor sizes were determined by width * length and mice were culled when tumors reached the ethical limit of 150 mm^2.

[2] = test system: B16F10 Cherry melanoma metastases; test: Example 10: number of lung tumor metastases in the B16F10 tumor mouse model; format: in vivo, C57/BL6 mice; conditions: 100 mg/kg once-daily oral gavage days 0 to 13, counted day 14, Batch 71236AA006
Protocol: The C57/BL6 mouse melanoma cell line B16F10 Cherry was cultured in DMEM supplemented with 10% FCS, GlutaMAX, and penicillin/streptomycin. Tumor cells are periodically verified to be Mycoplasma negative by the Victorian Infectious Diseases References Lab (Melbourne, VIC, Australia) by PCR analysis. 2×10^5 cells were resuspended in PBS and injected i.v. into C57/BL6 mice in a 200 μL volume. At day 14 lungs were excised and the number of metastases counted under the dissecting microscope. Mice were dosed with either SYN-115 (Batch 71236AA006) at 100 mg/kg or vehicle control once-daily via oral gavage on days 0 to 13. To calculate a dose of SYN-115 mouse weight was estimated to be 20 g per mouse. Therefore, 100 mg/kg=2 mg per mouse in 200 μL, which is equivalent to 10 mg/ml. To make up 40 mL, 400 milligrams of SYN-115 was weighed and added into a Falcon tube, then 1 mL of Tween 80 was added and mixed into a paste and then 39 mL of 1% Methyl Cellulose was added. Solution was vortexed and then left on a rotating mixer for at least 2 hours and maintained at 4° C.

[3] = test system: CT26 colon carcinoma tumor; test: Example 4: anti-tumor responses of SYN-115 in the CT26 tumor mouse model (tumor area, survival); format: in vivo, BALB/c mice; set-up: key: tumor area, width*length, in mm^2
Protocol: The BALB/c mouse colon carcinoma cell line CT26 was cultured in RPMI supplemented with 10% FCS, GlutaMAX, and penicillin/streptomycin. Tumor cells are periodically verified to be Mycoplasma negative by the Victorian Infectious Diseases References Lab (Melbourne, VIC, Australia) by PCR analysis. 1×10^5 cells were resuspended in PBS and injected s.c. into BALB/c mice in a 100 μL volume. At day 9, tumors were measured and mice were randomized into distinct treatment groups to ensure that each group had tumors of similar size at the onset of treatment. Mice were treated i.p. at days 9, 13 and 17 with either isotype control (2A3; 200 μg/mouse) or anti-PD-1 mAb (RMP1-14, 200 μg/mouse) and where indicated, SYN-115 (Batch 71236AA002) at the indicated dose or vehicle control once-daily via oral gavage on days 14 to 29. To calculate a dose of SYN-115 mouse weight was estimated to be 20 g per mouse. Therefore, 100 mg/kg=2 mg per mouse in […] which is equivalent to 10 mg/ml. To make up 40 mL, 400 milligrams of SYN-115 was weighed and added into a Falcon tube, then 1 mL of Tween 80 was added and mixed into a paste and then 39 mL of 1% Methyl Cellulose was added. The solution was vortexed and then left on a rotating mixer for at least 2 hours and maintained at 4° C. Tumor measurements were taken 2-3 times per week. Tumor sizes were determined by width * length and mice were culled when tumors reached the ethical limit of 150 mm^2.

COc1ccc(N2CCOCC2)c2sc(NC(=O)N3CCC(C)(O)CC3)nc12 [SYN-115, 4-hydroxy-4-methyl-piperidine-1-carboxylic acid (4-methoxy-7-morpholin-4-yl-benzothiazol-2-yl)-amide]
Tumor area, individual mice ([1]; SYN-115 10 mg/kg, Day 0, 10 mg/kg): 4.86 and 6.44 and 7.56 and 8.37 and 8.84 and 11.2 | Tumor area, individual mice ([1]; SYN-115 10 mg/kg, Day 2, 10 mg/kg): 6.16 and 6.75 and 7.36 and 15.2 and 9.45 and 14.06 | Tumor area, individual mice ([1]; SYN-115 10 mg/kg, Day 4, 10 mg/kg): 15.75 and 12.16 and 22.55 and 23.52 and 8.36 and 26.95 | Tumor area, individual mice ([1]; SYN-115 10 mg/kg, Day 7, 10 mg/kg): 20.7 and 14.04 and 41.44 and 34.77 and 6.24 and 46.92 | Tumor area, individual mice ([1]; SYN-115 10 mg/kg, Day 9, 10 mg/kg): 30.53 and 22.09 and 52.08 and 50.37 and 0 and 66.99 | Tumor area, individual mice ([1]; SYN-115 10 mg/kg, Day 11, 10 mg/kg): 44.1 and 31.32 and 70.68 and 66.42 and 0 and 89.24 | Tumor area, individual mice ([1]; SYN-115 10 mg/kg, Day 14, 10 mg/kg): 52.8 and 48.96 and 108.1 and 114.45 and 0 and 125.08 | Tumor area, individual mice ([1]; SYN-115 10 mg/kg, Day 16, 10 mg/kg): 91.44 and 67.86 and 132.84 and 135.42 and 0 and 179.55 | Tumor area, individual mice ([1]; SYN-115 10 mg/kg, Day 18, 10 mg/kg): 136.71 and 100.98 and 202.5 and 119.88 and 0 | Tumor area, individual mice ([1]; SYN-115 10 mg/kg, Day 21, 10 mg/kg): 175.74 and 162 and 160 and 0 | Tumor area, individual mice ([1]; SYN-115 10 mg/kg, Day 25): 0 | Tumor area, individual mice ([1]; SYN-115 10 mg/kg, Day 29): 0 | Tumor area, individual mice ([1]; SYN-115 10 mg/kg, Day 32): 0 | Tumor area, individual mice ([1]; SYN-115 10 mg/kg, Day 35): 0 | Tumor area, individual mice ([1]; SYN-115 10 mg/kg, Day 37): 0 | Tumor area, individual mice ([1]; SYN-115 30 mg/kg, Day 0, 30 mg/kg): 5 (2×) and 6.24 and 7.56 and 8.7 and 12.48 | Tumor area, individual mice ([1]; SYN-115 30 mg/kg, Day 2, 30 mg/kg): 12.6 (2×) and 8.12 and 9.28 and 12.95 and 8.4 | Tumor area, individual mice ([1]; SYN-115 30 mg/kg, Day 4, 30 mg/kg): 21.6 (2×) and 15.96 and 13.65 and 24.48 and 10.56 | Tumor area, individual mice ([1]; SYN-115 30 mg/kg, Day 7, 30 mg/kg): 42.21 (2×) and 25 and 25.5 and 30.21 and 30.24 | Tumor area, individual mice ([1]; SYN-115 30 mg/kg, Day 9, 30 mg/kg): 50.16 (2×) and 35.4 and 29.68 and 47.61 and 31.9 | Tumor area, individual mice ([1]; SYN-115 30 mg/kg, Day 18, 30 mg/kg): 204.8 (2×) and 114 and 189.23 and 202.86 and 125.4 | Tumor area, individual mice ([1]; SYN-115 30 mg/kg, Day 21, 30 mg/kg): 153.4 and 179.4 | Raw Tumor Measurements ([1]; SYN-115 (1 mg/kg), Day 0, 1 mg/kg): 5.25 and 6.72 and 8.37 and 7.84 and 9.6 and 10.36 | Raw Tumor Measurements ([1]; SYN-115 (1 mg/kg), Day 2, 1 mg/kg): 12.95 and 12.54 and 15.6 and 13.6 and 12.71 and 15.84 | Raw Tumor Measurements ([1]; SYN-115 (1 mg/kg), Day 4, 1 mg/kg): 14.8 and 22.95 and 21 and 24.99 and 20.4 and 24.19 | Raw Tumor Measurements ([1]; SYN-115 (1 mg/kg), Day 16, 1 mg/kg): 144.1 and 103.55 and 103.74 and 155.61 | Raw Tumor Measurements ([1]; SYN-115 (1 mg/kg), Day 18, 1 mg/kg): 208.68 and 167.24 and 138.6 | Raw Tumor Measurements ([1]; SYN-115 (1 mg/kg), Day 21): 173.46 | Raw Tumor Measurements ([1]; SYN-115 (5 mg/kg), Day 0, 5 mg/kg): 4.8 and 7.8 and 7.54 and 8.84 | Raw Tumor Measurements ([1]; SYN-115 (5 mg/kg), Day 2, 5 mg/kg): 13.12 and 11.16 and 13.26 and 10.36 | Raw Tumor Measurements ([1]; SYN-115 (5 mg/kg), Day 4, 5 mg/kg): 20.8 and 11.2 and 18.45 and 19.52 | Raw Tumor Measurements ([1]; SYN-115 (5 mg/kg), Day 25, 5 mg/kg): 163.8 and 83.52 | Raw Tumor Measurements ([1]; SYN-115 (5 mg/kg), Day 29): 101.76 | Raw Tumor Measurements ([1]; SYN-115 (5 mg/kg), Day 32): 124.74 | Raw Tumor Measurements ([1]; SYN-115 (5 mg/kg), Day 35): 146.52 | Raw Tumor Measurements ([1]; SYN-115 (5 mg/kg), Day 37): 161.59 | Number of Tumor Metastases (lung), individual mice ([2]; AC#009 Males): 0 (2×) and 9 and 5 and 16 and 13 and 1 | Number of Tumor Metastases (lung), individual mice ([2]; AC#010 Females): 166 and 38 and 141 and 32 and 137 and 264 and 23 and 226 | Raw Tumor Measurements ([3]; 2A3 (200 μg/mouse)+SYN-115 (30 mg/kg), Day 0): 12.71 and 14.85 and 16.32 and 18.92 and 20.16 and 22.36 | Raw Tumor Measurements ([3]; 2A3 (200 μg/mouse)+SYN-115 (30 mg/kg), Day 4): 37.62 and 42.12 and 40.7 and 53.2 and 38.4 and 52.56 | Raw Tumor Measurements ([3]; 2A3 (200 μg/mouse)+SYN-115 (30 mg/kg), Day 13): 146.41 and 150.7 and 93.93 and 186.83 | Raw Tumor Measurements ([3]; 2A3 (200 μg/mouse)+SYN-115 (30 mg/kg), Day 15): 188.94 and 100.8 | Raw Tumor Measurements ([3]; 2A3 (200 μg/mouse)+SYN-115 (30 mg/kg), Day 19): 186.12 | Raw Tumor Measurements ([3]; 2A3 (200 μg/mouse)+SYN-115 (100 mg/kg), Day 0): 12.76 and 14.8 and 17 and 18.9 and 20.5 and 21.12 | Raw Tumor Measurements ([3]; 2A3 (200 μg/mouse)+SYN-115 (100 mg/kg), Day 4): 44.73 and 41.31 and 42.7 and 41.76 and 49.64 and 25.85 | Raw Tumor Measurements ([3]; 2A3 (200 μg/mouse)+SYN-115 (100 mg/kg), Day 6): 53.4 and 59.78 and 73.04 and 58.32 and 71.76 and 42.92 | Raw Tumor Measurements ([3]; 2A3 (200 μg/mouse)+SYN-115 (100 mg/kg), Day 8): 66.75 and 90.2 and 89 and 87.4 and 94.08 and 51.84 | Raw Tumor Measurements ([3]; 2A3 (200 μg/mouse)+SYN-115 (100 mg/kg), Day 13): 187.53 and 175.56 and 213.12 and 203.68 and 164.56 and 110.4 | Raw Tumor Measurements ([3]; 2A3 (200 μg/mouse)+SYN-115 (100 mg/kg), Day 15): 151.42 | Raw Tumor Measurements ([3]; Anti-PD-1 (200 ug)+SYN-115 (30 mg/kg), Day 22): 108 and 136.64 and 120.64 | Raw Tumor Measurements ([3]; Anti-PD-1 (200 ug)+SYN-115 (30 mg/kg), Day 25): 160.95 and 151.2 and 159.6

From patent publication US20220088024A1, “METHODS FOR TREATING CANCER USING TOZADENANT” (Biotie Therapies, Inc., priority 2018, published 2022)
